In US10028942B2 (priority 2013, dated 2018):

The compounds below were run against T1, DLK (Homo sapiens, UniProt Q12852). Conditions: read-out: DLK (Ki) μM; TR-FRET; 5 nM GST-tagged DLK (catalytic domain aa 1-520), 40 nM HIS-MKK4 K131M substrate, 30 μM ATP, 60 minutes.
T1 sequence (Q12852 1-520): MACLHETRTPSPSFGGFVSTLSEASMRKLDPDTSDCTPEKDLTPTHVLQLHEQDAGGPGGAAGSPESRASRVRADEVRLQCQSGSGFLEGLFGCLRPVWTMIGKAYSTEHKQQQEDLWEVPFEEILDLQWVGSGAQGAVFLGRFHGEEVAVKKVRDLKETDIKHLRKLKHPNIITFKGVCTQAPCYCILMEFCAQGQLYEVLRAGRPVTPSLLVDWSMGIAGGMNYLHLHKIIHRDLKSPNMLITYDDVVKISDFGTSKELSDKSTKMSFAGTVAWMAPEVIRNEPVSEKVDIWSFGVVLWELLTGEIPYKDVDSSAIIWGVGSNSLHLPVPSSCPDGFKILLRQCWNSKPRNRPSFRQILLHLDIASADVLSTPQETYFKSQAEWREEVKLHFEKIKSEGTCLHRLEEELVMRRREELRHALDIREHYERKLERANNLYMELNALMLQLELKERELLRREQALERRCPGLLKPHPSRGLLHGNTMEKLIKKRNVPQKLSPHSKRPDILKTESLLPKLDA
Work on `CC(C)n1nc(-c2cnc(N)c(C(F)(F)F)c2)cc1[C@H]1[C@@H]2CN(S(C)(=O)=O)C[C@@H]21` [Compound 108, 5-(1-isopropyl-5-((1R,5S,6r)-3-(meth-ylsulfonyl)-3-azabicyclo[3.1.0]hex-an-6-yl)-1H-pyrazol-3-yl)-3-(trifluoro-methyl)pyridin-2-amine] yielded a Ki of 0.0049 µM.
`CC(C)n1nc(-c2cnc(N)c(C(F)(F)F)c2)cc1[C@H]1[C@@H]2CN(CC(F)F)C[C@@H]21` [Compound 109, 5-(5-((1R,5S,6r)-3-(2,2-difluoroethyl)-3-azabicyclo[3.1.0]hexan-6-yl)-1-isopropyl-1H-pyrazol-3-yl)-3-(trifluoro-methyl)pyridin-2-amine] gave a Ki of 0.001 µM.
`CC(C)n1nc(-c2cnc(N)c(OC(F)F)c2)cc1[C@H]1[C@@H]2CN(CC(F)(F)F)C[C@@H]21` [Compound 110, 3-(difluoromethoxy)-5-(1-isopropyl-5-((1R,5S,6r)-3-(2,2,2-trifluoroethyl)-3-azabicyclo[3.1.0]hexan-6-yl)-1H-pyrazol-3-yl)pyridin-2-amine] showed a Ki of 0.0045 µM.
`Nc1ncc(-c2cc([C@H]3[C@@H]4CN(CC(F)(F)F)C[C@@H]43)n(C3COC3)n2)cc1Cl` [Compound 111, 3-chloro-5-(1-(oxetan-3-yl)-5-((1R,5S, 6r)-3-(2,2,2-trifluoroethyl)-3-azabi-cyclo[3.1.0]hexan-6-yl)-1H-pyrazol-3-yl)pyridin-2-amine] was tested, and the Ki was 0.18 µM.
`N#Cc1cc(-c2cc([C@H]3[C@@H]4CN(CC(F)(F)F)C[C@@H]43)n(CC3CC3)n2)cnc1N` [Compound 113, 2-amino-5-(1-(cyclopropylmethyl)-5-((1R,5S,6r)-3-(2,2,2-trifluoroethyl)-3-azabicyclo[3.1.0]hexan-6-yl)-1H-pyrazol-3-yl)nicotinonitrile] was tested, and the Ki was 0.064 µM.
For `CC(C)n1nc(-c2cnc(N)c3cn[nH]c23)cc1[C@H]1[C@@H]2CN(CC(F)(F)F)C[C@@H]21` [Compound 114, 7-(1-isopropyl-5-((1R,5S,6r)-3-(2,2,2-trifluoroethyl)-3-azabicyclo[3.1.0]hexan-6-yl)-1H-pyrazol-3-yl)-1H-py-razolo[4,3-c]pyridin-4-amine], the Ki was 0.96 µM.
Compound `CC(=O)N1C[C@@H]2[C@H](C1)[C@H]2c1cc(-c2cnc(N)c(C(F)(F)F)c2)nn1C(C)C` [Compound 115, 1-((1R,5S,6r)-6-(3-(6-amino-5-(trifluoro-methyl)pyridin-3-yl)-1-isopropyl-1H-pyrazol-5-yl)-3-azabicyclo[3.1.0]hexan-3-yl)ethanone] has a Ki of 0.0056 µM.
With `COCCN1C[C@@H]2[C@H](C1)[C@H]2c1cc(-c2cnc(N)c(C(F)(F)F)c2)nn1C(C)C` [Compound 117, 5-(1-isopropyl-5-((1R,5 S,6r)-3-(2-methoxyethyl)-3-azabicyclo[3.1.0]hexan-6-yl)-1H-pyrazol-3-yl)-3-(trifluoromethyl)pyridin-2-amine] the Ki was 0.0094 µM.
Work on `COCCN1C[C@@H]2[C@H](C1)[C@H]2c1cc(-c2cnc(N)c(Cl)c2)nn1C(C)C` [Compound 118, 3-chloro-5-(1-isopropyl-5-((1R,5S,6r)-3-(2-methoxyethyl)-3-azabicyclo[3.1.0]hexan-6-yl)-1H-pyrazol-3-yl) pyridin-2-amine] yielded a Ki of 0.034 µM.
`COCCN1C[C@@H]2[C@H](C1)[C@H]2c1cc(-c2cnc(N)c(OC(F)F)c2)nn1C(C)C` [Compound 119, 3-(difluoromethoxy)-5-(1-isopropyl-5-((1R,5S,6r)-3-(2-methoxyethyl)-3-azabicyclo[3.1.0]hexan-6-yl)-1H-py-razol-3-yl)pyridin-2-amine] was tested, and the Ki was 0.0055 µM.
Work on `COCCN1C[C@@H]2[C@H](C1)[C@H]2c1cc(-c2cnc(N)c(Cl)c2)nn1CC(C)C` [Compound 120, 3-chloro-5-(1-isobutyl-5-((1R,5S,6r)-3-(2-methoxyethyl)-3-azabicyclo[3.1.0]hexan-6-yl)-1H-pyrazol-3-yl)pyri-din-2-amine] yielded a Ki of 0.03 µM.
`COCCN1C[C@@H]2[C@H](C1)[C@H]2c1cc(-c2cnc(N)c(Cl)c2)nn1CC1CC1(F)F` (stereo partly drawn) [Compound 121, 3-chloro-5-(1-((2,2-difluorocyclopro-pyl)methyl)-5-((1R,5S,6r)-3-(2-meth-oxyethyl)-3-azabicyclo[3.1.0]hexan-6-yl)-1H-pyrazol-3-yl)pyridin-2-amine] showed a Ki of 0.09 µM.
`COCCN1C[C@@H]2[C@H](C1)[C@H]2c1cc(-c2cnc(N)c(C(F)(F)F)c2)nn1CC1CC1` [Compound 122, 5-(1-(cyclopropylmethyl)-5-((1R,5S, 6r)-3-(2-methoxyethyl)-3-azabicyclo [3.1.0]hexan-6-yl)-1H-pyrazol-3-yl)-3-(trifluoromethyl)pyridin-2-amine] was tested, and the Ki was 0.0079 µM.
`COCCN1C[C@@H]2[C@H](C1)[C@H]2c1cc(-c2cnc(N)c(Cl)c2)nn1CC1CC1` [Compound 123, 3-chloro-5-(1-(cyclopropylmethyl)-5-((1R,5S,6r)-3-(2-methoxyethyl)-3-aza-bicyclo[3.1.0]hexan-6-yl)-1H-pyra-zol-3-yl)pyridin-2-amine] was tested, and the Ki was 0.027 µM.
For `COCCN1C[C@@H]2[C@H](C1)[C@H]2c1cc(-c2cnc(N)c(C(F)(F)F)c2)nn1CC1CCC1` [Compound 124, 5-(1-(cyclobutylmethyl)-5-((1R,5S,6r)-3-(2-methoxyethyl)-3-azabicyclo [3.1.0]hexan-6-yl)-1H-pyrazol-3-yl)-3-(trifluoromethyl)pyridin-2-amine], the Ki was 0.027 µM.
Compound `COCCN1C[C@@H]2[C@H](C1)[C@H]2c1cc(-c2cnc(N)c(OC(F)(F)F)c2)nn1C(C)C` [Compound 125, 5-(1-isopropyl-5-((1R,5S,6r)-3-(2-meth-oxyethyl)-3-azabicyclo[3.1.0]hex-an-6-yl)-1H-pyrazol-3-yl)-3-(trifluoro-methoxy)pyridin-2-amine] has a Ki of 0.0058 µM.
In the case of `COCCN1C[C@@H]2[C@H](C1)[C@H]2c1cc(-c2cnc(N)c(C(F)(F)F)c2)nn1CC(F)(F)F` [Compound 126, 5-(5-((1R,5S,6r)-3-(2-methoxyethyl)-3-azabicyclo[3.1.0]hexan-6-yl)-1-(2,2,2-trifluoroethyl)-1H-pyrazol-3-yl)-3-(trifluoromethyl)pyridin-2-amine], the Ki is reported as 0.0019 µM.
`CC(C)n1nc(-c2cnc(N)c(C(F)(F)F)c2)cc1[C@H]1[C@@H]2CN(CCC#N)C[C@@H]21` [Compound 127, 3-((1R,5S,6r)-6-(3-(6-amino-5-(trifluoro-methyl)pyridin-3-yl)-1-isopropyl-1H-pyrazol-5-yl)-3-azabicyclo[3.1.0]hexan-3-yl)propanenitrile] was tested, and the Ki was 0.0059 µM.
Compound `CC(C)n1nc(-c2cnc(N)c(C(F)(F)F)c2)cc1[C@H]1[C@@H]2CN(CC(C)(C)O)C[C@@H]21` [Compound 128, 1-((1R,5S,6r)-6-(3-(6-amino-5-(trifluoro-methyl)pyridin-3-yl)-1-isopropyl-1H-pyrazol-5-yl)-3-azabicyclo[3.1.0]hexan-3-yl)-2-methylpropan-2-ol] has a Ki of 0.011 µM.
`COCC(C)N1C[C@@H]2[C@H](C1)[C@H]2c1cc(-c2cnc(N)c(C(F)(F)F)c2)nn1C(C)C` (stereo partly drawn) [Compound 129, 5-(1-isopropyl-5-((1R,5S,6r)-3-(1-meth-oxypropan-2-yl)-3-azabicyclo[3.1.0]hexan-6-yl)-1H-pyrazol-3-yl)-3-(trifluoromethyl)pyridin-2-amine] was tested, and the Ki was 0.0013 µM.
With `CC(C)OC(=O)N1C[C@@H]2[C@H](C1)[C@H]2c1cc(-c2cnc(N)c(C(F)(F)F)c2)nn1C(C)C` [Compound 130, (1R,5S,6r)-isopropyl 6-(3-(6-amino-5-(trifluoromethyl)pyr-ridin-3-yl)-1-isopropyl-1H-pyrazol-5-yl)-3-azabicyclo[3.1.0]hexane-3-car-boxylate] the Ki was 0.0056 µM.
